Source: ChEMBL document CHEMBL1201862, “PubChem BioAssay data set” (2004)
Activity calls are given as the source filed them.

Columns and labels:
Estrogen receptor [1] = molecular target: T1, Estrogen receptor (Homo sapiens, UniProt P03372); experiment: ERα–SRC-3 coactivator interaction inhibitors, confirmation, orthogonal assay, biochemical, ELISA, streptavidin-HRP readout (AID 1079)
T1 sequence (P03372 whole entry): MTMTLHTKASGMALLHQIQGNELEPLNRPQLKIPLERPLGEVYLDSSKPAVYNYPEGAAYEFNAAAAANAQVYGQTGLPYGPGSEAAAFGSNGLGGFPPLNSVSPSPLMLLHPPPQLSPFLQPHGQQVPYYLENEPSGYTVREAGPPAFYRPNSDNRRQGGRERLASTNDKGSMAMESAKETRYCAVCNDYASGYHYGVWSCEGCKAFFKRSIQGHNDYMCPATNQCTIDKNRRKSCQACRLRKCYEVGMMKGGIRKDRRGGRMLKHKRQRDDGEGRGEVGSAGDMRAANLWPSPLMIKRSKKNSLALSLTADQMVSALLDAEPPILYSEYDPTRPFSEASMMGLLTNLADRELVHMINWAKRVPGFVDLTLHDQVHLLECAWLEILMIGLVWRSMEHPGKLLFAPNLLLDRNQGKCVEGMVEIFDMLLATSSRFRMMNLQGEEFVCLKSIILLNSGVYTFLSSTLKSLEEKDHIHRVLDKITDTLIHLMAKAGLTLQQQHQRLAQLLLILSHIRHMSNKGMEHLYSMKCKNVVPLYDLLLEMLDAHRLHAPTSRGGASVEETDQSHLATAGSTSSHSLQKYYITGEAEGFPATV

[2] = molecular target: T2, Neuropeptide Y receptor type 2 (Homo sapiens, UniProt P49146); experiment: Fluorescence-based counterscreen for agonists of NPY-Y1: cell-based high-throughput dose response assay for agonists of NPY-Y2.; assay type: functional
HEK293 [3] = experiment: Fluorescence-based counterscreen for potentiators or agonists of NPY-Y1: cell-based high-throughput dose response assay for inhibitors of cyclic nucleotide gated ion channel (CNGC) activity. In this assay, the parental HEK293 cell line transfected with a cyclic-nucleotide gated ion channel (CNGC)-based cAMP sensor is used to measure inhibition of isoproterenol-induced CNGC …; assay type: functional; details: Homo sapiens
[4] = molecular target: T3, Neuropeptide Y receptor type 1 (Homo sapiens, UniProt P25929); experiment: Fluorescence-based dose response cell-based high-throughput screening assay for agonists of NPY-Y1. [Related pubchem assays: 1697 (Screening assay (NPY-Y1 agonists).), 1359 (Screening assay (NPY-Y2 potentiators or agonists).), 1304 (Screening assay (NPY-Y1 potentiators or agonists).), 1704 (Screening assay (CNGC inhibitors).), 1791 (Summary AID.)]; assay type: functional
Estrogen receptor [5] = molecular target: T1, Estrogen receptor; experiment: potentiators of ERα–SRC-1 coactivator binding, dose response, biochemical, TR-FRET, ERα LBD (AID 737)
[6] = test system: Streptococcus sp. 'group A'; experiment: growth inhibition of control SK(-) GAS strain, dose response, counter-screen for streptokinase expression inhibitor project, luminescence, kanamycin, BacTiterGlo, confirmation (AID 1900); assay type: functional, organism-based
[7] = Luminescence Cell-Based Dose Confirmation HTS to Identify Inhibitors of Platelet Dense Granule Release. [Related pubchem assays: 1663 (Primary HTS), 1678 (Summary of Project)]; assay type: functional
[8] = Fluorescence Cell-Based Dose Response to Identify Inhibitors of Thrombin Receptor-Activating Peptide SFLLRN-Mediated P-Selectin Induction on Platelets. [Related pubchem assays: 1663 (Primary HTS), 1889 (retest at dose ), 1891 (counterscreen), 1678 (Project Summary)]; assay type: functional
Streptococcus = experiment: Group A Streptococcus viability loss, dose response, counter-screen for streptokinase expression inhibitor project, luminescence, BacTiterGlo (AID 1915); assay type: functional, organism-based;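 note: potency for reduction of bacterial viability or growth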
HeLa = experiment: HeLa cell cytotoxicity, dose response, cytotoxicity control, 24 h, cherry-picked samples (AID 504726); assay type: functional, cell-based; details: Homo sapiens;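 note: potency for cytotoxicity as loss of luminescence signal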
HEK293 [9] = experiment: Fluorescence-based counterscreen for potentiators or agonists of NPY-Y2: cell-based high-throughput dose response assay to identify inhibitors of cyclic nucleotide gated ion channel (CNGC) activity. In this assay, the parental HEK293 cell line transfected with a cyclic-nucleotide gated ion channel (CNGC)-based cAMP sensor is used to measure inhibition of isoproterenol-induced CNGC activity by test compound.; assay type: functional; details: Homo sapiens
[10] = molecular target: T4, Eukaryotic translation initiation factor 2-alpha kinase 3 (Homo sapiens, UniProt Q9NZJ5); experiment: Dose response cell-based high-throughput screening assay to measure PERK inhibition. [Related pubchem assays: 1416 ]; assay type: functional
[11] = molecular target: T2, Neuropeptide Y receptor type 2; experiment: Fluorescence-based cell-based high-throughput dose response assay for agonists of NPY-Y2. [Related pubchem assays: 1703 (Screening assay (CNGC inhibitors).), 1359 (Screening assay (NPY-Y2 potentiators or agonists).), 1304 (Screening assay (NPY-Y1 potentiators or agonists).), 1710 (Screening assay (NPY-Y2 agonists).), 1791 (Summary AID.)]; assay type: functional
[12] = molecular target: T4, Eukaryotic translation initiation factor 2-alpha kinase 3; experiment: Counterscreen assay for PERK inhibitors: Dose response cell-based high throughput screening assay to measure inhibition of PERK at 6 hours. [Related pubchem assays: 1522, 1416 ]; assay type: functional
[13] = molecular target: T3, Neuropeptide Y receptor type 1; experiment: Fluorescence-based counterscreen for agonists of NPY-Y2: cell-based high-throughput dose response assay for agonists of NPY-Y1.; assay type: functional
[14] = molecular target: Dual specificity protein phosphatase 3 (Homo sapiens, UniProt P51452); experiment: VHR1 inhibitor Ki determination, SAR follow-up, biochemical, colorimetric (AID 2004)
[15] = molecular target: Eukaryotic translation initiation factor 4H (Homo sapiens, UniProt Q15056); experiment: human eIF4H binding inhibitors, primary screen, translation initiation inhibitor project, biochemical, uHTS, fluorescence polarization (AID 2012)
[16] = molecular target: Luciferin 4-monooxygenase (Photinus pyralis, UniProt P08659); experiment: firefly luciferase enzyme inhibitors, dose response, biochemical, luminescence (AID 1891)
[17] = molecular target: Polyadenylate-binding protein 1 (Homo sapiens, UniProt P11940); experiment: PABP poly(A) RNA binding inhibitors, primary screen, biochemical, fluorescence polarization, uHTS (AID 2014)
[18] = cytotoxicity in HEK-293T cells, dose response, cytotoxicity control for BCR NF-kB inhibitor project, luminescence, B-cell screen hits (AID 489021); assay type: functional, cell-based;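 note: HEK-293T cells carrying an NF-kB luciferase reporter; cells exposed to compound for about 14 hours before viability readout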
Genome polyprotein = Genome polyprotein (Hepatitis C virus, UniProt Q2Q167); experiment: HCV core protein dimerization inhibitors, dose response, biochemical, TR-FRET (AID 2159); parameters: species or system Hepacivirus hominis;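 note: blocks dimerization of HCV core protein measured by TR-FRET between tagged core106 pairs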
Bcl-2-like protein 10 = Bcl-2-like protein 10 (Homo sapiens, UniProt Q9HD36); experiment: displacers of TR3 peptide from Bcl-B, primary screen, selectivity assay for Bfl-1 inhibitor project, biochemical, fluorescence polarization, FITC-TR3 peptide (AID 748);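 note: fluorescence polarization from a fluorescein-labelled TR3 peptide binding purified Bcl-B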
[19] = A Cell Based Secondary Assay To Explore Cytotoxicity of Compounds that Sensitize Mycobacterium Tuberculosis to Beta-Lactam Antibiotics.; assay type: functional
[20] = molecular target: T5, Induced myeloid leukemia cell differentiation protein Mcl-1 (Homo sapiens, UniProt Q07820); experiment: MCL1-BIM BH3 interaction inhibitors, dose response, biochemical, fluorescence polarization, BIM-BH3 peptide, 1536-well (AID 2217)
Estrogen receptor beta [21] = molecular target: T6, Estrogen receptor beta (Homo sapiens, UniProt Q92731);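 note: recombinant ER-beta bound to coactivator SRC1 peptide in presence of estradiol agonist; inhibitors block coactivator peptide binding and lower the FRET signal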
Estrogen receptor beta [22] = molecular target: T6, Estrogen receptor beta; experiment: ERβ–SRC-3 coactivator interaction inhibitors, confirmation, orthogonal assay, biochemical, ELISA, streptavidin-HRP readout (AID 1060)
Bcl-2-like protein 1 = Bcl-2-like protein 1 (Homo sapiens, UniProt Q07817); experiment: BCL-XL inhibitors, dose response, selectivity assay for MCL1 inhibitor project, biochemical, fluorescence polarization, 1536-well (AID 2218)
[23] = molecular target: T5, Induced myeloid leukemia cell differentiation protein Mcl-1; assay type: functional
SUMO E1/E2 = SUMO E1/E2 (Homo sapiens, UniProt P63279+Q9UBE0+Q9UBT2); experiment: SAR analysis of SUMOylation using HTRF in an in-Vitro dose response assay. [Related pubchem assays (depositor defined):AID2006, AID2011, AID2018, AID2069, AID2658]; assay type: functional
[24] = molecular target: T7, Voltage-gated N-type calcium channel alpha-1B subunit/Amyloid beta A4 precursor protein-binding family A member 1 (Homo sapiens, UniProt Q00975+Q02410); experiment: disruptors of Mint-PDZ/N-type channel peptide interaction – biochemical, HTRF, set 2, SAR follow-up (AID 434980); assay type: functional
[25] = molecular target: T7, Voltage-gated N-type calcium channel alpha-1B subunit/Amyloid beta A4 precursor protein-binding family A member 1; experiment: disruptors of Mint-PDZ/N-type channel peptide interaction – biochemical, HTRF, SAR follow-up (AID 2489); assay type: functional
[26] = inhibitors of firefly luciferase expression or activity, dose response, H4 neuroglioma cells, luminescence (AID 1990); assay type: functional, cell-based
[27] = Luminescence Cell-Based Dose Response HTS to Identify Inhibitors of 5'UTR Stem-Loop Driven Prion Protein mRNA Translation in H4 Neuroglioblastoma Cells. [Related pubchem assays: 1827 (Project Summary), 1813 (Primary HTS)]; assay type: functional
[28] = inhibitors of SNCA 5'UTR-driven reporter translation, confirmation, H4 neuroglioma cells, luminescence (AID 1988); assay type: functional, cell-based
[29] = A High Throughput Confirmatory Assay used to Identify Novel Compounds that Inhibit Mycobacterium Tuberculosis in the absence of Glycerol.; assay type: functional
[30] = microbe, parasite or virus in culture; assay type: functional; details: Mycobacterium tuberculosis
Mucolipin-3 = Mucolipin-3 (Homo sapiens, UniProt Q8TDD5); experiment: Dose response cell-based high-throughput screening assay for agonists of the transient receptor potential channel ML3 (TRPML3). [Related pubchem assays: 1526, 1424, 1448 ]; assay type: functional
Ion channel NompC = Ion channel NompC (Danio rerio, UniProt Q7T1G6); experiment: Fluorescence counterscreen assay for TRPML3 agonists: dose response cell-based high-throughput screening assay to identify agonists of the transient receptor potential channel N1 (TRPN1). [Related pubchem assays: 1526, 1424, 1448 ]; assay type: functional
[31] = molecular target: Mothers against decapentaplegic homolog 3 (Homo sapiens, UniProt P84022); experiment: Smad3 binding inhibitors, lysate ELISA, dose response, cell lysate, secondary confirmation, chemiluminescent ELISA, HEK293 lysate (AID 1058); assay type: functional
[32] = molecular target: Transitional endoplasmic reticulum ATPase (Homo sapiens, UniProt P55072, C522A); experiment: C522A mutant p97 ATPase inhibitors, dose response, counter-screen for p97 inhibitor project, biochemical, luminescence (AID 1544)
[33] = molecular target: Transitional endoplasmic reticulum ATPase (Homo sapiens, UniProt P55072); experiment: p97 ATPase inhibitors, dose response, biochemical (AID 1534)
[34] = molecular target: Eukaryotic translation initiation factor 4E (Mus musculus, UniProt P63073); experiment: eIF4E–eIF4G protein interaction inhibitors, dose response, biochemical, TR-FRET (AID 855); assay type: functional;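 note: potency for disrupting eIF4E binding to eIF4GI seen as loss of FRET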
Chain of Eukaryotic translation initiation factor 4E (P63073 whole entry): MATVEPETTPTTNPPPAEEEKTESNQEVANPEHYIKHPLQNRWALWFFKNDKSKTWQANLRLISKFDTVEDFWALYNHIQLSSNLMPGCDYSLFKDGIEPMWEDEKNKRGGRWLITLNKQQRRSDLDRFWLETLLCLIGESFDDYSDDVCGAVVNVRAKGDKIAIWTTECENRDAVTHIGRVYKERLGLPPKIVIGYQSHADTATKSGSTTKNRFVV

T6 sequence (Q92731 whole entry): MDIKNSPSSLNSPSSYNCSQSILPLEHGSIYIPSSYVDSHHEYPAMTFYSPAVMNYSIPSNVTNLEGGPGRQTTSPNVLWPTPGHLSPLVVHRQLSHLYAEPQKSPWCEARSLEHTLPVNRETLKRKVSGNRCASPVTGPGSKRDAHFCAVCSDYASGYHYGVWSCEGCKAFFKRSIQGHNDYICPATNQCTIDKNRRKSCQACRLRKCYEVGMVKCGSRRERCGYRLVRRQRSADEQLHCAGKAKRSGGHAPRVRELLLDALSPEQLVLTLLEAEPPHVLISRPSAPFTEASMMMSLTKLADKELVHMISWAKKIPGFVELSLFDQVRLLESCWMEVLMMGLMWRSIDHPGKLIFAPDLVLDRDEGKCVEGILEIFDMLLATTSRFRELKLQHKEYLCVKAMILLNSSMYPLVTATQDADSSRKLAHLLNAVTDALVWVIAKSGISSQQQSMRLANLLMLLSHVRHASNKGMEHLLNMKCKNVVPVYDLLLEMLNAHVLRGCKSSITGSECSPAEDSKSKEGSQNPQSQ
T7 sequence (Q00975 whole entry): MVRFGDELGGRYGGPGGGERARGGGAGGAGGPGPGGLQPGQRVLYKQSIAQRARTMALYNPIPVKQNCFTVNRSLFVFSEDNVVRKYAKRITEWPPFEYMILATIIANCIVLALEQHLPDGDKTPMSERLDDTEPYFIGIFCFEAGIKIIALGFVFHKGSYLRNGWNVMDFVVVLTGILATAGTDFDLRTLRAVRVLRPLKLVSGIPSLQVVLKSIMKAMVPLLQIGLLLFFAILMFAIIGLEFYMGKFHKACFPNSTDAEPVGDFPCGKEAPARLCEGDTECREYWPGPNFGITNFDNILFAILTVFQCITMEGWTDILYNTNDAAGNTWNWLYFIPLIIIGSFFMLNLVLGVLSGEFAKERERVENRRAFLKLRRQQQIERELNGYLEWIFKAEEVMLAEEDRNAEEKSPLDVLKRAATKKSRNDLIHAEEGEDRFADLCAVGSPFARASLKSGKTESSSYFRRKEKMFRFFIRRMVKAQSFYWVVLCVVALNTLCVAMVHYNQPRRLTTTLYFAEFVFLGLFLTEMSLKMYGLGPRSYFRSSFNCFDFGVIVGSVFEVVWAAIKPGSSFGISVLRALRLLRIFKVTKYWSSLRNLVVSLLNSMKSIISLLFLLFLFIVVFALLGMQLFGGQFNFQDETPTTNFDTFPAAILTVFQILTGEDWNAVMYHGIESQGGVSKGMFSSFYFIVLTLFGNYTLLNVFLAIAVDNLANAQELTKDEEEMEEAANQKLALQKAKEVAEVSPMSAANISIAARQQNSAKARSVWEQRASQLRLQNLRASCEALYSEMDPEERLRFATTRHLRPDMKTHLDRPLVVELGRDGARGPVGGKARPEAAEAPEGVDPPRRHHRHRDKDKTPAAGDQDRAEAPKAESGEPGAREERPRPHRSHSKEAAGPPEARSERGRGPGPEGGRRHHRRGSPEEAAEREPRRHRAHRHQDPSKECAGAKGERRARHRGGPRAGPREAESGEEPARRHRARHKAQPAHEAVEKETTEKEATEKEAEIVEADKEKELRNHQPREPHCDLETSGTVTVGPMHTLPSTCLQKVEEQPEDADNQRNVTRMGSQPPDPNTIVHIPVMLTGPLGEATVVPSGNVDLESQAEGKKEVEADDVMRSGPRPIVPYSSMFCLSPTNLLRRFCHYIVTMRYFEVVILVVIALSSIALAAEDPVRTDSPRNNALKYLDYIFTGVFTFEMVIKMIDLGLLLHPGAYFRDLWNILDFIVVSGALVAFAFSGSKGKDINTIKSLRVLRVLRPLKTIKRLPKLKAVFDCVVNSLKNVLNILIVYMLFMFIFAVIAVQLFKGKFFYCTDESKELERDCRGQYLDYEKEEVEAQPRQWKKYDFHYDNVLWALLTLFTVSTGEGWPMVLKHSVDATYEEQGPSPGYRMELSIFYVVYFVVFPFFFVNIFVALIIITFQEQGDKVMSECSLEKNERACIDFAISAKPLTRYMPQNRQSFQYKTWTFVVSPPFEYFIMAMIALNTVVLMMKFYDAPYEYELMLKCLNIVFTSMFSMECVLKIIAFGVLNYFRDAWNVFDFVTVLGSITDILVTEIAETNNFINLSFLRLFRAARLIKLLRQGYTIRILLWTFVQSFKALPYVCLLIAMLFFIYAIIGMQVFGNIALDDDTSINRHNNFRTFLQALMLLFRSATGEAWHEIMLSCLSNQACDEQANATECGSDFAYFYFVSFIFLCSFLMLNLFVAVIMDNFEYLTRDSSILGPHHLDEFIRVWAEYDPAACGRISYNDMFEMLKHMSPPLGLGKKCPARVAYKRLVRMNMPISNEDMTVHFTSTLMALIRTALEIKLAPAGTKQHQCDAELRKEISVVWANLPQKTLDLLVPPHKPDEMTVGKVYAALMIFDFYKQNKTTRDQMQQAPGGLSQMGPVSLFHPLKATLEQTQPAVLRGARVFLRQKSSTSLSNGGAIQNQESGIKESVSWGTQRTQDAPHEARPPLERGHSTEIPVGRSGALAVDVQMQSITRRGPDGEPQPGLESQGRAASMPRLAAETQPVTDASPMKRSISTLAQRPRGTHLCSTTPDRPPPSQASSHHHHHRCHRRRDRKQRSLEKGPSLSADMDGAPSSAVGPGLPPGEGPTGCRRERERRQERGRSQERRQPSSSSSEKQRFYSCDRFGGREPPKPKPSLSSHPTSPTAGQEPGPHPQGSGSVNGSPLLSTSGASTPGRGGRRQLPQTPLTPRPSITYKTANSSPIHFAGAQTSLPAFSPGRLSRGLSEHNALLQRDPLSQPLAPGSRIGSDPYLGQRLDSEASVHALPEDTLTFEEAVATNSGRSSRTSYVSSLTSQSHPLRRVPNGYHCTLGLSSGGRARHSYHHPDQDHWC
T7 sequence (Q02410 whole entry): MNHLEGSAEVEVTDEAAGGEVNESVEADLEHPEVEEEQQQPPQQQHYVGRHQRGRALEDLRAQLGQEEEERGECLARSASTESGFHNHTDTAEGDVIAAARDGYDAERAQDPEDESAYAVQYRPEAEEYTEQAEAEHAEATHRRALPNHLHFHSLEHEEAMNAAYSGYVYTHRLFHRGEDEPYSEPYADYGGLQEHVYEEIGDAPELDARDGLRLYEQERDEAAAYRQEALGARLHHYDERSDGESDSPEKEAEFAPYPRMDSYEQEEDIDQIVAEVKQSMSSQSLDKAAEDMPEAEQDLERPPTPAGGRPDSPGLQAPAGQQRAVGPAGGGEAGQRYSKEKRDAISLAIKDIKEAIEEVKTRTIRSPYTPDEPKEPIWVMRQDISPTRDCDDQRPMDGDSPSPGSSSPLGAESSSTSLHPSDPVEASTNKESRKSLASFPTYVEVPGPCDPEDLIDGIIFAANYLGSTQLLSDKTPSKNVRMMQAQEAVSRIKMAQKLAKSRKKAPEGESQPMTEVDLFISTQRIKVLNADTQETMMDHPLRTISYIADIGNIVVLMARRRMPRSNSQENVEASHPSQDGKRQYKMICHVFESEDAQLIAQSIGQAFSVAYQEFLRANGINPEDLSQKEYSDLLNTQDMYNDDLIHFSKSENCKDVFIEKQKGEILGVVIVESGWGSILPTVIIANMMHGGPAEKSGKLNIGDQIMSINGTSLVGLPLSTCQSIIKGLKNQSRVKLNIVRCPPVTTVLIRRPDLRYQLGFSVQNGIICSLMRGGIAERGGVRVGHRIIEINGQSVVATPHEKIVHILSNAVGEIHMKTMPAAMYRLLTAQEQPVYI
T4 sequence (Q9NZJ5 whole entry): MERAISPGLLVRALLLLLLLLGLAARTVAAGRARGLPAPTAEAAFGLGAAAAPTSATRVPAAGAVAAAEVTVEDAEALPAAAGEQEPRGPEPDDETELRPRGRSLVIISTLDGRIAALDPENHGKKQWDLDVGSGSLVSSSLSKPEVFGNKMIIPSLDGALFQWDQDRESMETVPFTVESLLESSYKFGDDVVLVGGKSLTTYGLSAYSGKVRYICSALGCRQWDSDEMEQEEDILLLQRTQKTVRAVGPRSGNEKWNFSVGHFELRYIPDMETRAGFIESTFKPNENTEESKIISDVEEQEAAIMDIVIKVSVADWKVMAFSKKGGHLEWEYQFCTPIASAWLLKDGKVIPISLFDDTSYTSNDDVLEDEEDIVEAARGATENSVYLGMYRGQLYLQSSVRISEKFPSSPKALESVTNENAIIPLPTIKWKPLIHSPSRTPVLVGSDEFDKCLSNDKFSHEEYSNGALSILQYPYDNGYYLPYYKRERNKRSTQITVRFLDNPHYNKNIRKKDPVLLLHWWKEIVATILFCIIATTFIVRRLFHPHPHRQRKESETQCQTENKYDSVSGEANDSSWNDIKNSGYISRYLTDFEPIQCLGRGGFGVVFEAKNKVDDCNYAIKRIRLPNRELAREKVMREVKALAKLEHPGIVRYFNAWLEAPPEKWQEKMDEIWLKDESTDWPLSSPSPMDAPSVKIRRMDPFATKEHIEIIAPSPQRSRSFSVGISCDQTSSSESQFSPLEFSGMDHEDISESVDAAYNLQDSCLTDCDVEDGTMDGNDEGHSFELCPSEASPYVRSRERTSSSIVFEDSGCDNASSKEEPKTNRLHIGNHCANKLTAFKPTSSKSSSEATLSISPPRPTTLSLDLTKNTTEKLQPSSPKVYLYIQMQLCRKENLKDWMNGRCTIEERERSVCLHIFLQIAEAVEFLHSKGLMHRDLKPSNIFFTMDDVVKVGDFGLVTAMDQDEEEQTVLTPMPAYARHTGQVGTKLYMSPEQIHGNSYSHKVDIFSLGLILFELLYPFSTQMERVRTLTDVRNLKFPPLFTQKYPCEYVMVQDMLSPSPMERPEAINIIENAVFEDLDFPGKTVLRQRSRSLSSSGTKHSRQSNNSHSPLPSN

## O=C(CCCCCn1c(=S)[nH]c2ccccc2c1=O)N1CCN(c2ncccn2)CC1
Estrogen receptor [1]
  IC50: 0.12 µM (not active)

## Cc1ccccc1OCC(O)CN1CCN(CC(O)COc2ccccc2C)CC1 (stereo not drawn)
[2]
  EC50: > 35.4 µM (not active)
HEK293 [3]
  IC50: 12 µM (not active)
[4]
  EC50: > 35.4 µM (not active)

## CC(C)CCNC(=O)COc1ccc2c3c(c(=O)oc2c1)CCC3
Estrogen receptor [5]
  EC50: 13.3 µM (not active)

## Oc1nc2c(s1)C=Nc1ccccc1N2
[6]
  EC50: > 150 µM (not active)
[7]
  EC50: 1.17 µM (active)
[8]
  EC50: < 0.3 µM (active)
Streptococcus
  EC50: > 150 µM (not active)
HeLa
  AC50: 71.5 µM (active)

## COCCOC(=O)C(CC(=O)O)NCc1ccco1 (stereo not drawn)
HEK293 [9]
  EC50: > 35.4 µM (not active)
[10]
  EC50: > 55.7 µM (not active)
[11]
  EC50: > 35.4 µM (not active)
[12]
  EC50: > 55.7 µM (not active)
[13]
  EC50: > 35.4 µM (not active)

## CC(C)=C1C(=O)NN(c2ccccc2)C1=O
[14]
  Ki: 71 µM (inactive)

## CCCCn1c2c(c(=N)c3ccccc31)CCC2
[15]
  IC50: > 100 µM (inactive)
[16]
  EC50: > 112 µM (not active)
[7]
  EC50: 1.25 µM (active)
[17]
  IC50: 3.5 µM (active)
[18]
  IC50: > 80 µM (inactive)

## O=C(OCC(=O)N1CCN(C(=O)c2ccco2)CC1)c1cc(-c2ccco2)nc2ccccc12
Genome polyprotein
  IC50: > 49.8 µM (not active)
Bcl-2-like protein 10
  IC50: 12 µM (active)
[19]
  CC50: > 40 µM (active)
[20]
  IC50: 6.8 µM (active)
Estrogen receptor beta [21]
  IC50: < 1.56 µM (active)
Estrogen receptor beta [22]
  IC50: > 50 µM (not active)
Bcl-2-like protein 1
  IC50: > 109 µM (not active)
[23]
  IC50: 3.96 µM (active)
SUMO E1/E2
  IC50: 1.93 µM (active)
[24]
  IC50: 2.86 µM (active)
[25]
  IC50: 5.92 µM (active)

## CC(C)CNc1nnnc2c1sc1nc(N3CCOCC3)c3c(c12)CC(C)(C)SC3
[26]
  EC50: 19.2 µM (active)
[27]
  EC50: 35.1 µM (active)
[28]
  EC50: 14.3 µM (active)
[29]
  IC50: > 100 µM (active)
[30]
  CC50: > 40 µM (active)

## COc1ccc(C(C(=O)NC2CCCC2)N(Cc2ccccc2)C(=O)c2nsc(Cl)c2Cl)cc1 (stereo not drawn)
Mucolipin-3
  EC50: > 29.9 µM (not active)
Ion channel NompC
  EC50: > 29.9 µM (not active)

## O=c1cc2oc3cc(O)c(O)cc3c(-c3ccccc3)c-2cc1O
[31]
  IC50: < 1.25 µM (not active)

## CN(C)[C@@H]1C(O)=C(C(N)=O)C(=O)[C@@]2(O)C(O)=C3C(=O)c4c(O)cccc4[C@@](C)(O)[C@H]3[C@H](O)[C@@H]12 [OXYTETRACYCLINE]
[32]
  IC50: > 50 µM (not active)
[33]
  IC50: > 50 µM (not active)
[34]
  IC50: 50 µM (inactive)
